The values below come from PMC7059030, “Design, Synthesis, Molecular Modeling Studies and Biological Evaluation of N′-Arylidene-6-(benzyloxy)-4-oxo-1,4-dihydroquinoline-3-carbohydrazide Derivatives as Novel Anti-HCV Agents” (Iranian Journal of Pharmaceutical Research : IJPR, 2019).

Data set [1] is described as follows: XTT cytotoxicity assay. It is filed as cell-based. To be noted: human, Huh-7.5 cells. The method, then:
The cytotoxicity of compounds to Huh-7.5 cells was measured in parallel with the HCV replication assay based on the cleavage of the yellow tetrazolium salt XTT® (sodium 3-[1 (phenylaminocarbonyl)-3, 4-tetrazolium]-bis(4-methoxy-6-nitro)benzene sulfonic acid) to generate an orange formazan dye by metabolic function of alive and active cells. Cells were treated with various concentrations ([…]) of compounds and incubated for 72 hours.
The cell cytotoxicity was determined using XTT proliferation assay kit (Sigma-Aldrich) following the manufacturer’s instructions. The 50% cytotoxic concentration (CC50) was defined as the concentration of compound that reduced cell proliferation by 50%.
(In general: Tetrazolium dyes change colour on reduction, which living cells bring about.)

For data set [2], the system named is HCV (JFH-1 strain) in Huh7.5 cells. Put plainly: Cell-based HCV replicon assay (RT-qPCR of HCV RNA in infected Huh7.5 cells). To be noted: for EC50: Huh7.5 cells infected with HCV (JFH-1), three days, HCV RNA by quantitative RT-PCR; for SI = CC50/EC50: selectivity index, CC50 (Huh-7.5, XTT) / EC50 (HCV replicon). On the set-up: species or system hepatitis C virus. The protocol: The plasmid encoding the full genome of […] (JFH-1) strain (kindly provided by Wakita T) was used for in-vitro transcription to produce approximately high titer stocks of cell culture-produced virus (HCVcc) as previously described ([37]).
Huh7.5 cells were seeded into 48-well plates at a density of 3×10^5 cells per well with DMEM containing 10% FBS. After 24 h, huh7.5 cells were infected with HCV viral stock ([…]) for 3 h, at which point the infection was stopped and each well was washed three times by sterile PBS to removed non-penetrated virions and then the fresh medium was added to each well. Subsequently, the infected cells were treated with newly synthesized compounds at different concentrations and the sofosbuvir (Sigma-Aldrich, USA) as a positive control. After three days inoculation, the supernatant medium was collected and the viral RNA was extracted using viral QIAamp viral RNA mini kit (Qiagen, Düsseldorf, Germany), according to the manufacturer protocol. Then, the amount of HCV replicon RNA was determined using Quantitative RT-PCR assay by hepatitis C virus viral load kit (Gene Proof, Czech Republic, with CE, IVD) according to the manufacturer’s instruction.
The 50% effective concentration (EC50) was determined as the ratio of the normalized HCV RNA amount in treated samples relative to the controls (the samples without compound treatment) using GraphPad Prism5.0 software (GraphPad Software, San Diego, CA).
Target compounds 13-25 were evaluated in a cell-based viral replication surrogate assay known as the replicon system ([39]). We hypothesized that our quinolone analogues will inhibit NS5B, likely via binding to the active site. To test this hypothesis, FDA-approved active site binding NI, sofosbuvir, was used as a control compound. In parallel, compounds were also evaluated for their cytotoxic effects in the same cell line to ensure that the activity is completely devoid of cytotoxicity effects. The biological results are expressed as EC50, CC50 and SI (selectivity index, given by the CC50/EC50 ratio).

[3] abbreviates: Hepatitis C virus, Huh7.5, 72 h, read-out: EC50.
The mark [4] stands for this setting: Hepatitis C virus, Huh7.5, 72 h.

The structures appear in SMILES notation. Like-named read-outs stand apart in the source and are kept apart here.

Consider `Cc1ccccc1C=NNC(=O)c1c[nH]c2ccc(OCc3ccccc3)cc2c1=O` [Compound 23, 6-(Benzyloxy)-N′-(2-methylbenzylidene)-4-oxo-1,4-dihydroquinoline-3-carbohydrazide], for which the melting point was 290 °C (dec.). Besides, in data set [1], the CC50 at 72 h was 160 µM. The EC50 in data set [2] (setting [3]) was 70 µM. Moreover, the “SI = CC50/EC50” value in data set [2] worked out at 2.2.

Consider `O=C(NN=Cc1ccccc1F)c1c[nH]c2ccc(OCc3ccccc3)cc2c1=O` [Compound 20, 6-(Benzyloxy)-N′-(2-fluorobenzylidene)-4-oxo-1,4-dihydroquinoline-3-carbohydrazide], for which the melting point is 324 °C (dec.). This molecule also gave a 50% cytotoxic concentration (CC50) at 72 h in data set [1] of more than 200 µM. The same molecule returned a concentration giving a half-maximal response (EC50) in data set [2] (setting [4]) of 70 µM. Further, in data set [2], the response was half-maximal at 120 µM (EC50) and the “SI = CC50/EC50” value is listed as more than 2.

As for `Cc1ccc(C=NNC(=O)c2c[nH]c3ccc(OCc4ccccc4)cc3c2=O)cc1` [Compound 17, 6-(Benzyloxy)-N′-(4-methylbenzylidene)-4-oxo-1,4-dihydroquinoline-3-carbohydrazide], the melting point is 330 °C (dec.). In data set [1], the CC50 at 72 h was more than 200 µM. The EC50 in data set [2] (setting [4]) was more than 200 µM.

In the case of `O=C(NN=Cc1ccccc1)c1c[nH]c2ccc(OCc3ccccc3)cc2c1=O` [Compound 13, N′-Benzylidene-6-(benzyloxy)-4-oxo-1,4-dihydroquinoline-3-carbohydrazide], the melting point was 130 °C (dec.). Also, the CC50 at 72 h in data set [1] was more than 200 µM. In addition, the 50% effective concentration (EC50) in data set [2] (setting [3]) is more than 200 µM.

`O=C(NN=Cc1ccc(Cl)cc1)c1c[nH]c2ccc(OCc3ccccc3)cc2c1=O` [Compound 16, 6-(Benzyloxy)-N′-(4-chlorobenzylidene)-4-oxo-1,4-dihydroquinoline-3-carbohydrazide]: the melting point was 329 °C (dec.). In addition, the cytotoxic concentration (CC50) at 72 h in data set [1] was more than 200 µM. In data set [2] (setting [3]), the EC50 is more than 200 µM.

The molecule `CC(C)OC(=O)[C@H](C)N[P@](=O)(OC[C@H]1O[C@@H](n2ccc(=O)[nH]c2=O)[C@](C)(F)[C@@H]1O)Oc1ccccc1` [Sofosbuvir, sofosbuvir, reference compound] came in with a cytotoxic concentration (CC50) at 72 h in data set [1] of more than 500 µM. Besides, the EC50 in data set [2] (setting [3]) came to 5 µM. In data set [2], the “SI = CC50/EC50” value is recorded as more than 100.

Take `COc1ccccc1C=NNC(=O)c1c[nH]c2ccc(OCc3ccccc3)cc2c1=O` [Compound 25, 6-(Benzyloxy)-N′-(2-methoxybenzylidene)-4-oxo-1,4-dihydroquinoline-3-carbohydrazide]: the melting point was 299 °C (dec.). The molecule also came in with a CC50 at 72 h in data set [1] of more than 200 µM. Also, in data set [2] (setting [3]), the concentration for a half-maximal effect (EC50) was more than 200 µM.

Turning to `CSc1ccc(C=NNC(=O)c2c[nH]c3ccc(OCc4ccccc4)cc3c2=O)cc1` [Compound 14, 6-(Benzyloxy)-N′-(4-(methylthio)benzylidene)-4-oxo-1,4-dihydroquinoline-3-carbohydrazide], the melting point is 160 °C (dec.). The molecule further had a 50% cytotoxic concentration (CC50) at 72 h in data set [1] of more than 200 µM. The molecule also returned an EC50 in data set [2] (setting [4]) of more than 200 µM.

With `Cc1cccc(C=NNC(=O)c2c[nH]c3ccc(OCc4ccccc4)cc3c2=O)c1` [Compound 22, 6-(Benzyloxy)-N′-(3-methylbenzylidene)-4-oxo-1,4-dihydroquinoline-3-carbohydrazide], the melting point is 310 °C (dec.). Further, in data set [1], half-maximal cytotoxicity (CC50 at 72 h) was put at 100 µM. Besides, in data set [2] (setting [3]), the EC50 came out at 45 µM. In addition, in data set [2], the “SI = CC50/EC50” value is recorded as 2.2.

Regarding `O=C(NN=Cc1cccc(F)c1)c1c[nH]c2ccc(OCc3ccccc3)cc2c1=O` [Compound 19, 6-(Benzyloxy)-N′-(3-fluorobenzylidene)-4-oxo-1,4-dihydroquinoline-3-carbohydrazide], the melting point is 305 °C (dec.). Further, the CC50 at 72 h in data set [1] was more than 200 µM. Also, the concentration giving a half-maximal response (EC50) in data set [2] (setting [3]) was more than 200 µM.

On to `COc1ccc(C=NNC(=O)c2c[nH]c3ccc(OCc4ccccc4)cc3c2=O)cc1` [Compound 18, 6-(Benzyloxy)-N′-(4-methoxybenzylidene)-4-oxo-1,4-dihydroquinoline-3-carbohydrazide], for which the melting point is 154 °C (dec.). In data set [1], this molecule returned a CC50 at 72 h of more than 200 µM. Further, the “SI = CC50/EC50” value in data set [2] is more than 2.

With `O=C(NN=Cc1ccc(F)cc1)c1c[nH]c2ccc(OCc3ccccc3)cc2c1=O` [Compound 15, 6-(Benzyloxy)-N′-(4-fluorobenzylidene)-4-oxo-1,4-dihydroquinoline-3-carbohydrazide], the melting point was 305 °C (dec.). In addition, the 50% cytotoxic concentration (CC50) at 72 h in data set [1] is more than 200 µM. In addition, in data set [2] (setting [3]), the concentration for a half-maximal effect (EC50) was more than 200 µM.

As to `COc1cccc(C=NNC(=O)c2c[nH]c3ccc(OCc4ccccc4)cc3c2=O)c1` [Compound 24, 6-(Benzyloxy)-N′-(3-methoxybenzylidene)-4-oxo-1,4-dihydroquinoline-3-carbohydrazide], the melting point is 280 °C (dec.). This molecule gave a cytotoxic concentration (CC50) at 72 h in data set [1] of more than 200 µM. For the same molecule, in data set [2] (setting [3]), the EC50 was determined as 120 µM. Besides, the “SI = CC50/EC50” value in data set [2] was more than 1.8.

Take `O=C(NN=Cc1cccc(Cl)c1)c1c[nH]c2ccc(OCc3ccccc3)cc2c1=O` [Compound 21, 6-(Benzyloxy)-N′-(3-chlorobenzylidene)-4-oxo-1,4-dihydroquinoline-3-carbohydrazide]: the melting point was 291 °C (dec.). Moreover, the cytotoxic concentration (CC50) at 72 h in data set [1] is 90 µM. Moreover, the concentration for a half-maximal effect (EC50) in data set [2] (setting [3]) worked out at 35 µM. In addition, the “SI = CC50/EC50” value in data set [2] is reported as 2.5.

The term CC50 denotes the concentration at which the toxic effect on the cells reaches its halfway point. A high value points to lower toxicity to the cells. As usually defined, the melting point is the temperature of the solid-liquid transition. The EC50 is the midpoint of the concentration-response curve.
